Reference: the supplement of paper PMC10307832

Columns and labels:
Test in all cases: relative viability (nuclei count vs DMSO), 5 days (fraction); higher = more cells survive
Bexarotene + AZD7762 = compound: C=C(c1ccc(C(=O)O)cc1)c1cc2c(cc1C)C(C)(C)CCC2(C)C [Bexarotene] + NC(=O)Nc1cc(-c2cccc(F)c2)sc1C(=O)N[C@H]1CCCNC1 [AZD7762] (partner 0.2 µM)
Outline: (§1)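 Each reported value is a median over duplicate plates. It expresses relative viability: treated-well nuclei count divided by vehicle-well nuclei count. Lung cancer cell lines in 1536-well plates were dosed by pin tool a day after seeding, alone with one drug or with a fixed anchor-drug dose plus five library-drug doses (not always all listed) in √10 steps, and nuclei were counted after 5 days.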

Bexarotene + Vorinostat = compound: C=C(c1ccc(C(=O)O)cc1)c1cc2c(cc1C)C(C)(C)CCC2(C)C [Bexarotene] + O=C(CCCCCCC(=O)Nc1ccccc1)NO [Vorinostat] (partner 1 µM)
Outline: as §1

Bexarotene + Foretinib = compound: C=C(c1ccc(C(=O)O)cc1)c1cc2c(cc1C)C(C)(C)CCC2(C)C [Bexarotene] + COc1cc2c(Oc3ccc(NC(=O)C4(C(=O)Nc5ccc(F)cc5)CC4)cc3F)ccnc2cc1OCCCN1CCOCC1 [Foretinib] (partner 0.25 µM)
Outline: as §1

Bexarotene + Pictilisib = compound: C=C(c1ccc(C(=O)O)cc1)c1cc2c(cc1C)C(C)(C)CCC2(C)C [Bexarotene] + CS(=O)(=O)N1CCN(Cc2cc3nc(-c4cccc5[nH]ncc45)nc(N4CCOCC4)c3s2)CC1 [Pictilisib] (partner 1 µM)
Outline: as §1

Cell Line | relative viability (Bexarotene + AZD7762; first compound 0.08 µM) | relative viability (Bexarotene + AZD7762; first compound 0.253 µM) | relative viability (Bexarotene + AZD7762; first compound 0.8 µM) | relative viability (Bexarotene + AZD7762; first compound 2.53 µM) | relative viability (Bexarotene + AZD7762; first compound 8 µM) | relative viability (Bexarotene + Vorinostat; first compound 0.08 µM) | relative viability (Bexarotene + Vorinostat; first compound 0.253 µM) | relative viability (Bexarotene + Vorinostat; first compound 0.8 µM) | relative viability (Bexarotene + Vorinostat; first compound 2.53 µM) | relative viability (Bexarotene + Vorinostat; first compound 8 µM) | relative viability (Bexarotene + Foretinib; first compound 0.08 µM) | relative viability (Bexarotene + Foretinib; first compound 0.253 µM) | relative viability (Bexarotene + Foretinib; first compound 0.8 µM) | relative viability (Bexarotene + Foretinib; first compound 2.53 µM) | relative viability (Bexarotene + Foretinib; first compound 8 µM) | relative viability (Bexarotene + Pictilisib; first compound 0.08 µM) | relative viability (Bexarotene + Pictilisib; first compound 0.253 µM) | relative viability (Bexarotene + Pictilisib; first compound 0.8 µM) | relative viability (Bexarotene + Pictilisib; first compound 2.53 µM) | relative viability (Bexarotene + Pictilisib; first compound 8 µM)
NCI-H441 | 1.5 | 1.28 | 1.24 | 1.1 | 1.01 | 0.679 | 0.805 | 0.628 | 0.716 | 0.547 | 1.01 | 1.04 | 1.13 | 0.841 | 0.927 | 0.628 | 0.511 | 0.524 | 0.482 | 0.616
NCI-H1793 | 0.442 | 0.68 | 0.511 | 0.505 | 0.504 | 0.666 | 0.784 | 0.611 | 0.604 | 0.601 | 0.732 | 0.813 | 0.763 | 0.629 | 0.676 | 0.52 | 0.547 | 0.508 | 0.316 | 0.431
NCI-H23 | 0.297 | 0.239 | 0.231 | 0.261 | 0.196 | 0.715 | 0.782 | 0.599 | 0.453 | 0.541 | 0.888 | 1.06 | 0.921 | 1.01 | 0.785 | 0.623 | 0.489 | 0.44 | 0.516 | 0.52
HARA | 0.336 | 0.272 | 0.412 | 0.303 | 0.262 | 0.655 | 0.512 | 0.584 | 0.606 | 0.51 | 0.759 | 0.472 | 0.85 | 0.941 | 0.701 | 0.407 | 0.317 | 0.377 | 0.32 | 0.41
NCI-H1792 | 0.64 | 0.572 | 0.526 | 0.593 | 0.526 |  |  |  |  |  |  |  |  |  |  | 0.244 | 0.204 | 0.213 | 0.252 | 0.205
NCI-H1703 | 0.157 | 0.128 | 0.127 | 0.115 | 0.119 |  |  |  |  |  | 0.393 | 0.377 | 0.411 | 0.399 | 0.42 | 0.247 | 0.239 | 0.209 | 0.247 | 0.262
NCI-H1648 | 0.615 | 0.57 | 0.623 | 0.695 | 0.627 | 0.477 | 0.422 | 0.455 | 0.518 | 0.639 |  |  |  |  |  |  |  |  |  | 
CAL-12T | 0.649 | 0.549 | 0.603 | 0.427 | 0.513 | 0.723 | 0.837 | 0.887 | 0.529 | 0.655 | 1.31 | 1.1 | 1.19 | 1.03 | 0.977 | 0.333 |  | 0.396 |  | 0.361
NCI-H727 | 0.537 | 0.635 | 0.598 | 0.617 | 0.633 | 1.46 | 1.16 | 1.26 | 1.18 | 0.971 | 1.09 | 1.12 | 0.875 | 0.859 | 0.808 | 0.463 | 0.36 | 0.348 | 0.346 | 0.355
NCI-H2085 | 0.868 | 0.92 | 0.803 | 0.789 | 0.815 | 0.672 | 0.804 | 0.69 | 0.719 | 0.692 | 0.963 | 0.692 | 0.804 | 0.862 | 0.94 | 0.449 | 0.461 | 0.431 | 0.386 | 0.476
NCI-H1395 | 0.399 | 0.432 | 0.39 | 0.407 | 0.39 | 0.963 | 0.775 | 0.723 | 0.49 | 0.73 | 1.07 | 1.02 | 1.04 | 0.949 | 1.09 | 0.678 | 0.603 | 0.571 | 0.807 | 0.762
SW 900 | 0.652 | 0.511 | 0.453 | 0.518 | 0.454 | 0.543 | 0.473 | 0.433 | 0.453 | 0.471 | 0.991 | 0.881 | 0.901 | 1 | 0.862 |  |  |  |  | 
NCI-H460 | 0.694 | 0.701 | 0.701 | 0.668 | 0.735 | 0.812 | 0.752 | 0.644 | 0.716 | 0.67 | 1.1 | 0.99 | 0.976 | 1.02 | 1.01 | 0.471 | 0.343 | 0.396 | 0.302 | 0.371
A549 |  |  |  |  |  |  |  |  |  |  | 1.01 | 0.875 | 0.856 | 0.864 | 0.718 | 0.59 | 0.476 | 0.571 | 0.507 | 0.48
IA-LM |  |  |  |  |  | 0.79 | 0.817 | 0.756 | 0.718 | 0.7 | 1.03 | 1.14 | 0.98 | 0.935 | 0.93 | 0.335 | 0.314 | 0.476 | 0.313 | 0.319
EKVX | 0.804 | 0.848 | 0.822 | 0.828 | 0.634 | 0.69 | 0.811 | 0.709 | 0.819 | 0.542 | 0.666 | 0.915 | 0.925 | 0.822 | 0.711 | 0.352 | 0.432 | 0.446 | 0.357 | 0.404
ChaGo-K-1 | 0.934 | 0.828 | 0.813 | 0.832 | 0.873 | 0.848 | 0.886 | 0.844 | 0.818 | 0.918 | 1.07 | 0.963 | 0.976 | 0.936 | 0.919 | 0.902 | 0.679 | 0.875 |  | 0.801
NCI-H1755 | 0.536 | 0.6 | 0.439 | 0.569 | 0.54 | 0.85 | 0.991 | 0.815 | 0.652 | 0.662 | 0.934 | 0.953 | 0.885 | 0.937 | 0.852 | 0.457 | 0.454 | 0.356 | 0.37 | 0.337
